Source: PubChem BioAssay AID330 (DTP/NCI, 2004)
Several values for one entry are separate records, joined by “and”; a condition that tells them apart may be missing. Identical values can stand only once. Toxic doses and inconclusive results are not listed.

Tested on: P388 leukemia ip, CD2F1 mice, survival T/C
Test: NCI In Vivo Anticancer Drug Screen. Data for tumor model P388 Leukemia (intraperitoneal) in CD2F1 (CDF1) mice
Settings: endpoint: median survival time, higher = longer survival
Procedure, shortened: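 Mice carrying the transplanted tumor received test compound or vehicle. Survival was recorded in each group, and the value is the treated-group measurement divided by that of the vehicle-treated control group.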

[1] = dose: 100.0 mg/kg/injection, schedule: Q01DX005 (ip), vehicle: saline with Tween-80
[2] = dose: 50.0 mg/kg/injection, schedule: Q01DX009 (ip), vehicle: saline
[3] = dose: 100.0 mg/kg/injection, schedule: Q01DX009 (ip), vehicle: saline
[4] = dose: 200.0 mg/kg/injection, schedule: Q01DX009 (ip), vehicle: saline
[5] = dose: 100.0 mg/kg/injection, schedule: Q01DX001 (ip), vehicle: Klucel (hydroxypropylcellulose) (HPC)
[6] = dose: 200.0 mg/kg/injection, schedule: Q01DX001 (ip), vehicle: Klucel (hydroxypropylcellulose) (HPC)
[7] = dose: 50.0 mg/kg/injection, schedule: Q01DX001 (ip), vehicle: Klucel (hydroxypropylcellulose) (HPC)

CCc1nc(N)nc(N)c1-c1ccc(N2CCN(C)CC2)cc1
T/C (dose: 50.0 mg/kg/injection, schedule: Q01DX005 (ip), vehicle: saline with Tween-80): 103 % of control
T/C [1]: 100 % of control
T/C (dose: 200.0 mg/kg/injection, schedule: Q01DX005 (ip), vehicle: saline with Tween-80): 99 % of control

COC(=O)C(C)N(CCCl)P1(=O)OCCCN1CCCl (stereo not drawn)
T/C (dose: 60.0 mg/kg/injection, schedule: Q01DX005 (ip), vehicle: saline with Tween-80): 108 % of control
T/C (dose: 60.0 mg/kg/injection, schedule: Q01DX005 (ip), vehicle: saline): 99 % of control
T/C (dose: 120.0 mg/kg/injection, schedule: Q01DX005 (ip), vehicle: saline with Tween-80): 124 % of control
T/C (dose: 240.0 mg/kg/injection, schedule: Q01DX005 (ip), vehicle: saline with Tween-80): 165 % of control
T/C (dose: 240.0 mg/kg/injection, schedule: Q01DX005 (ip), vehicle: saline): 297 % of control
T/C (dose: 400.0 mg/kg/injection, schedule: Q01DX005 (ip), vehicle: saline with Tween-80): 252 % of control

NC(=S)N/N=C\c1ncccc1OCc1cccc(N)c1
T/C (dose: 12.5 mg/kg/injection, schedule: Q01DX009 (ip), vehicle: distilled water + Tween-80): 122 % of control
T/C (dose: 12.5 mg/kg/injection, schedule: Q01DX009 (ip), vehicle: other): 111 % of control
T/C (dose: 25.0 mg/kg/injection, schedule: Q01DX009 (ip), vehicle: other): 120 % of control and 124 % of control
T/C (dose: 200.0 mg/kg/injection, schedule: Q01DX009 (ip), vehicle: distilled water + Tween-80): 116 % of control
T/C (dose: 200.0 mg/kg/injection, schedule: Q01DX009 (ip), vehicle: other): 152 % of control
T/C (dose: 400.0 mg/kg/injection, schedule: Q01DX009 (ip), vehicle: distilled water + Tween-80): 100 % of control

N#CC1=C(C#N)Sc2nc3cc(Cl)ccc3nc2S1
T/C (dose: 6.25 mg/kg/injection, schedule: Q01DX009 (ip), vehicle: saline): 109 % of control
T/C (dose: 12.5 mg/kg/injection, schedule: Q01DX009 (ip), vehicle: saline): 115 % of control and 95 % of control
T/C (dose: 25.0 mg/kg/injection, schedule: Q01DX009 (ip), vehicle: saline): 108 % of control
T/C [2]: 115 % of control

CCOc1ccc2c(=O)c(C(=O)O)c[nH]c2c1
T/C [2]: 107 % of control
T/C [3]: 107 % of control
T/C [4]: 108 % of control

O=C(O)C1[S][Sb]([CH](C(=O)O)[CH](C(=O)O)[Sb]2[S]C(C(=O)O)C(C(=O)O)[S]2)[S]C1C(=O)O (stereo not drawn)
T/C [2]: 100 % of control
T/C [3]: 98 % of control
T/C [4]: 108 % of control

NC(=O)N/N=C1/C=CC2(CC=CCC2)CC1 (stereo not drawn)
T/C [5]: 90 % of control
T/C [6]: 104 % of control
T/C (dose: 400.0 mg/kg/injection, schedule: Q01DX001 (ip), vehicle: Klucel (hydroxypropylcellulose) (HPC)): 90 % of control

COc1ccc(/C=N/Nc2nnc3c4ccccc4c4ccccc4c3n2)cc1OC
T/C (dose: 50.0 mg/kg/injection, schedule: Q04DX002 (ip), vehicle: suspension in saline): 86 % of control
T/C (dose: 100.0 mg/kg/injection, schedule: Q04DX002 (ip), vehicle: suspension in saline): 89 % of control
T/C (dose: 200.0 mg/kg/injection, schedule: Q04DX002 (ip), vehicle: suspension in saline): 90 % of control

COc1c(C)cc([N+](=O)[O-])c(C)c1[N+](=O)[O-]
T/C [7]: 92 % of control
T/C [5]: 93 % of control
T/C [6]: 90 % of control

C[C@]12CCC(=O)C=C1CC[C@@H]1[C@@H]2CC[C@@]2(C)[C@H]1CCCN2CCO
T/C (dose: 25.0 mg/kg/injection, schedule: Q01DX001 (ip), vehicle: Klucel (hydroxypropylcellulose) (HPC)): 99 % of control
T/C [7]: 103 % of control
T/C [5]: 99 % of control and 97 % of control

CSc1ccc2c(NCCCCCCCCNc3c4ccccc4nc4cc(SC)ccc34)c3ccccc3nc2c1
T/C (dose: 0.63 mg/kg/injection, schedule: Q01DX009 (ip), vehicle: other): 117 % of control
T/C (dose: 1.25 mg/kg/injection, schedule: Q01DX009 (ip), vehicle: other): 119 % of control
T/C (dose: 2.5 mg/kg/injection, schedule: Q01DX009 (ip), vehicle: other): 123 % of control
T/C (dose: 10.0 mg/kg/injection, schedule: Q01DX009 (ip), vehicle: other): 122 % of control

OCC1OC(ONc2ccccc2)C(O)C(O)C1O (stereo not drawn)
T/C (dose: 60.0 mg/kg/injection, schedule: Q01DX005 (ip), vehicle: Klucel (hydroxypropylcellulose) (HPC)): 94 % of control
T/C (dose: 120.0 mg/kg/injection, schedule: Q01DX005 (ip), vehicle: Klucel (hydroxypropylcellulose) (HPC)): 99 % of control
T/C (dose: 240.0 mg/kg/injection, schedule: Q01DX005 (ip), vehicle: Klucel (hydroxypropylcellulose) (HPC)): 100 % of control

Cc1cc2nc(CC(=O)c3cccnc3)c(CC(=O)c3cccnc3)nc2cc1C
T/C (dose: 6.25 mg/kg/injection, schedule: Q01DX005 (ip), vehicle: saline with Tween-80): 90 % of control
T/C (dose: 12.5 mg/kg/injection, schedule: Q01DX005 (ip), vehicle: saline with Tween-80): 90 % of control
T/C (dose: 25.0 mg/kg/injection, schedule: Q01DX005 (ip), vehicle: saline with Tween-80): 90 % of control
T/C [1]: 91 % of control
